Assay results from patent US20180249713A1, “Composition for Protection of Plants, Fruit and Vegetables” (priority 2015, published 2018).
Where two headings read alike, the source gives them in different places.

Experiments:
[1] = system: Puccinia striiformis f. sp. tritici (Pst); assay: Indoor greenhouse study, stripe (yellow) rust, preventive and curative; type: in vivo; conditions: preventive spray one day prior to infection, curative three days later; 30, 100, 300, 1000 ppm; evaluated 16 days later
Excerpt: In this study we used tebuconazole as fungicidal reference (control) and the above outlined biocide A and B compositions for testing the effect on Stripe (yellow) rust, caused by Puccinia striiformis f. sp. tritici (Pst). The applied method also tests preventive and curative effects of the elected fungicide compositions.
The scale used is 0=no attack;
1=necrose with a few pustules; 5=half of the infected leafs are attacked by pustules; 10=100% attack of the leafs.
The leafs were sprayed preventive one day prior to infection with Stripe (yellow) rust. Three days later the plants were sprayed for curative purposes.
16 days later the plant were evaluated.
The following doses were used for both preventive and curative experiments: 30, 100, 300, 1000 ppm

Fusarium [2] = assay: Effect on Fusarium (Spore Growth) in vitro study; type: cell-based, Fusarium culmorum
Description: (§1) Sensitivity towards Tebuconazole (control) and Biocides A and B (see tables 1A and 1B) respectively, was tested in petri dishes using spore suspension containing 2.5×10^4 spores/ml of each fungal isolate or a mycelium block. 5-6 different concentrations of Biocide A and B respectively, as outlined in table 3 below were used in the tests.
(§2) For the tests, the two biocides A and B where individually mixed with potato dextrose broth to achieve the appropriate test concentration. Percent inhibition was assessed after a few days depending on the fungi and its growth rates measured in relation to control.

Fusarium [3] = assay: Effect on Fusarium (Mycelie Growth) in vitro study; type: cell-based, Fusarium culmorum
Description: as §1, §2

## CC(C)(C)C(O)(CCc1ccc(Cl)cc1)Cn1cncn1 (stereo not shown) [Tebuconazole]
[1]
  effect on Stripe (yellow) rust attack: able to eliminate the fungi attack both in a preventive and a curative manner
Fusarium [2]; 0.1 ppm
  Growth: 25%
Fusarium [2]; 1 ppm
  Growth: 0%
Fusarium [2]; 3.3 ppm
  Growth: 0%
Fusarium [2]; 10 ppm
  Growth: 0%
Fusarium [2]; 33 ppm
  Growth: 0%
Fusarium [2]; 100 ppm
  Growth: 0%
Septoria tritici; 0.1 ppm
  Growth: 10%
Septoria tritici; 1 ppm
  Growth: 5%
Septoria tritici; 3.3 ppm
  Growth: 0%
Septoria tritici; 10 ppm
  Growth: 0%
Septoria tritici; 33 ppm
  Growth: 0%
Septoria tritici; 100 ppm
  Growth: 0%
Fusarium [3]; 0.1 ppm
  Growth: 10%
Fusarium [3]; 1 ppm
  Growth: 10%
Fusarium [3]; 3.3 ppm
  Growth: 0%
Fusarium [3]; 10 ppm
  Growth: 0%
Fusarium [3]; 33 ppm
  Growth: 0%
Fusarium [3]; 100 ppm
  Growth: 0%
